In patent EP0782988A1, “INDOLE DERIVATIVES” (KYOWA HAKKO KOGYO CO., LTD., priority 1995, dated 1997) one finds inhibition in vivo data, which are given here for 9 molecules.

The subject of the assay is ovariectomized rats. Nature of the assay: Inhibitory effect on the increase of urinary hydroxyproline excretion by ovariectomy (Test Example 1). In kind it is in vivo, SD strain rats. Conditions: Rattus norvegicus, po, 336 h; ovariectomized female SD rats; test compound 10 mg/kg suspended in 0.3% Tween, orally once a day for two weeks; 24 h urine, hydroxyproline/creatinine molar ratio; versus ovariectomized control and sham-operated rats; read-out: Inhibition rate of increase of the amount of urinary hydroxyproline excretion. Here is the method:
The inhibitory effect of the compounds of the present application on bone resorption was determined by their inhibitory effect on the excretion of urinary hydroxyproline which is elevated by ovariectomy of the animals tested, according to the report of Kalu et al. [Bone and Mineral., 14, 175 (1991)].
Test Example 1: Inhibitory effect on the increase of urinary hydroxyproline excretion by ovariectomy
12-weeks-old female SD strain rats (Japan Clea Co., Ltd.) were acclimated for 1 week during which they were given tap water and a standard diet (F2; Funabashi Farmas) ad libitum. The experiment was carried out using the rats weighing 270-310 g. After the animals were subjected to sham operation or bilateral ovariectomy, they were allowed free access to water passed through ion exchange resin instead of tap water, and were housed in individual cages. The test compound (10 mg/kg) was suspended in 0.3% Tween, and the obtained suspension was orally administered to the ovariectomized rats once a day for two weeks starting from the day following ovariectomy (0.5 ml/100 g body weight). 0.3% Tween was similarly administered to sham-operated rats and ovariectomized control rats. After the final administration, the rats were placed in individual metabolic cages and fasted during 24 hours, and urine was collected. The volume of the collected urine was measured and the urine was centrifuged at 3,000 rpm for 15 min at 4°C. The concentration of hydroxyproline in the supernatant was measured by the method of Ikeda et al. [Ann. Rep. Tokyo Metr. Res. Lab. P. H., 36, 277-282 (1985)] and the concentration of creatinine in the supernatant was measured with creatinine test WAKO (Wako Pure Chem.) The amount of urinary hydroxyproline excretion was expressed by the molar ratio of the amount of hydroxyproline to the amount of creatinine. The rate of inhibition on increase of the amount of urinary hydroxyproline excretion in ovariectomized rats treated with the test compound compared to that of the control group was calculated using the following equation. Inhibition rate (%) = [(P1 - P2)/(P1 - P3)] x 100 [formula] • P1 : The amount of urinary hydroxyproline excretion in ovariectomized rats treated with 0.3% Tween (µmol/mmol). • P2 : The amount of urinary hydroxyproline excretion in ovariectomized rats treated with the test compound (µmol/mmol). • P3 : The amount of urinary hydroxyproline in sham-operated rats treated with 0.3% Tween (µmol/mmol).
Take `CN(C)CCN(C)C(=O)c1c(C(c2ccc(O)cc2)c2ccc(O)cc2)c2ccccc2n1CCN(C)C` [Compound 22, N-(2-Dimethylaminoethyl)-N-methyl-3-[bis(4-hydroxyphenyl)methyl]-1-(2-dimethylaminoethyl)indole-2-carboxamide]: the inhibition in vivo at 10 mg/kg worked out at 100%.
`CN(C)CCn1c(C(=O)NCCN2CCCCC2)c(C(c2ccc(O)cc2)c2ccc(O)cc2)c2ccccc21` [Compound 25, N-(2-Piperidinoethyl)-3-[bis(4-hydroxyphenyl)methyl]-1-(2-dimethylaminoethyl)indole-2-carboxamide]: the inhibition in vivo at 10 mg/kg was determined as 100%.
With `CN(C)CCn1c(C(=O)NCCCN2CCOCC2)c(C(c2ccc(O)cc2)c2ccc(O)cc2)c2ccccc21` [Compound 27, N-(3-Morpholinopropyl)-3-[bis(4-hydroxyphenyl)methyl]-1-(2-dimethylaminoethyl)indole-2-carboxamide] the figure was 30%; with `CN(C)CCn1c(C(=O)NCc2cccnc2)c(C(c2ccc(O)cc2)c2ccc(O)cc2)c2ccccc21` [Compound 29, N-(3-Pyridylmethyl)-3-[bis(4-hydroxyphenyl)methyl]-1-(2-dimethylaminoethyl)indole-2-carboxamide], 30%; with `CN(C)CCn1c(C(=O)NCc2ccncc2)c(C(c2ccc(O)cc2)c2ccc(O)cc2)c2ccccc21` [Compound 30, N-(4-Pyridylmethyl)-3-[bis(4-hydroxyphenyl)methyl]-1-(2-dimethylaminoethyl)indole-2-carboxamide], 100%.
As to `CN(C)CCn1c(C(=O)NCCc2ccncc2)c(C(c2ccc(O)cc2)c2ccc(O)cc2)c2ccccc21` [Compound 32, N-[2-(4-Pyridyl)ethyl]-3-[bis(4-hydroxyphenyl)methyl]-1-(2-dimethylaminoethyl)indole-2-carboxamide], the inhibition in vivo at 10 mg/kg was 100%.
Consider `CCN1CCCC1CNC(=O)c1c(C(c2ccc(O)cc2)c2ccc(O)cc2)c2ccccc2n1CCN(C)C` (stereo not drawn) [Compound 33, N-[(1-Ethyl-2-pyrrolidinyl)methyl]-3-[bis(4-hydroxyphenyl)methyl]-1-(2-dimethylaminoethyl)indole-2-carboxamide], for which the inhibition in vivo at 10 mg/kg came to 100%.
In the case of `CN(C)CCn1c(C(=O)NCCC2CCCN2C)c(C(c2ccc(O)cc2)c2ccc(O)cc2)c2ccccc21` (stereo not drawn) [Compound 34, N-[2-(1-Methyl-2-pyrrolidinyl)ethyl]-3-[bis(4-hydroxyphenyl)methyl]-1-(2-dimethylaminoethyl)indole-2-carboxamide], the inhibition in vivo at 10 mg/kg came out at 100%.
Take `CN(C)CCn1c(C(=O)NCC2CCCO2)c(C(c2ccc(O)cc2)c2ccc(O)cc2)c2ccccc21` (stereo not drawn) [Compound 37, N-(2-Tetrahydrofuranylmethyl)-3-[bis(4-hydroxyphenyl)methyl]-1-(2-dimethylaminoethyl)indole-2-carboxamide]: the inhibition in vivo at 10 mg/kg is 100%.
